Assay results from patent US8003660B2, “Modulators of muscarinic receptors” (Vertex Pharmaceuticals Incorporated, priority 2006, dated 2011).

Legend:
Format in all cases: cell-based
M4 muscarinic receptor = molecular target: T1, M4 muscarinic receptor (Homo sapiens, UniProt P08173); test: Functional mobilization of intracellular calcium (FLIPR) in CHO cells expressing M4; settings: for EC50: CHO cells expressing M4, FLIPR calcium; for Emax: CHO, 100% = maximum response obtained with the Carbachol control, read-out: M4 Efficacy
T1 construct: expressed in transfected cells; host or cells: CHO (M4-CHO)
T1 sequence (P08173 1-479): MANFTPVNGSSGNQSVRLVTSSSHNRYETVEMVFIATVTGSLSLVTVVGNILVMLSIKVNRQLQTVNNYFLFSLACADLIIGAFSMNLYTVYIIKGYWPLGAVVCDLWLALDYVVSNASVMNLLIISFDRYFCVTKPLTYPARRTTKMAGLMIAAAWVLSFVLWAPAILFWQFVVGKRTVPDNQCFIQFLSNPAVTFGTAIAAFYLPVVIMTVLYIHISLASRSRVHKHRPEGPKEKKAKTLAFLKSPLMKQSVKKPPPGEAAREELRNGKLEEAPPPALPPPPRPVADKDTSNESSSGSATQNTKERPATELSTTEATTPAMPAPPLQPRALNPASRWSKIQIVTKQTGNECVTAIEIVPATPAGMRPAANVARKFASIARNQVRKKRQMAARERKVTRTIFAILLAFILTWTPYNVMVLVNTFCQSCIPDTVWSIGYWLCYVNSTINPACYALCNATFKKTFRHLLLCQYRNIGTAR
Outline: (§1)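 Recombinant CHO cells loaded with Fluo-3 AM or Calcium 3 dye in pH 7.4 buffer containing 1 mM probenecid, with 0.5% final DMSO. For agonism, compound is added directly. For inhibition, it is preincubated 15 min, or co-applied, before carbachol at EC80. FLIPR fluorescence (ex 488, em 540 nm) is recorded for 60 s.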

M3 muscarinic receptor = molecular target: T2, M3 muscarinic receptor (Homo sapiens, UniProt P20309); test: Functional mobilization of intracellular calcium (FLIPR) in CHO cells expressing M3; settings: for EC50: CHO cells expressing M3, FLIPR calcium; for Emax: CHO, 100% = maximum response obtained with the Carbachol control, read-out: M3 Efficacy
T2 construct: expressed in transfected cells; host or cells: CHO (M3-CHO)
Outline: as §1

M1 muscarinic receptor = molecular target: T3, M1 muscarinic receptor (Homo sapiens, UniProt P11229); test: Functional mobilization of intracellular calcium (FLIPR) in CHO cells expressing M1; settings: for EC50: CHO cells expressing M1, FLIPR calcium; for Emax: CHO, 100% = maximum response obtained with the Carbachol control, read-out: M1 Efficacy
T3 construct: expressed in transfected cells; host or cells: CHO (M1-CHO)
T3 sequence (P11229 1-460): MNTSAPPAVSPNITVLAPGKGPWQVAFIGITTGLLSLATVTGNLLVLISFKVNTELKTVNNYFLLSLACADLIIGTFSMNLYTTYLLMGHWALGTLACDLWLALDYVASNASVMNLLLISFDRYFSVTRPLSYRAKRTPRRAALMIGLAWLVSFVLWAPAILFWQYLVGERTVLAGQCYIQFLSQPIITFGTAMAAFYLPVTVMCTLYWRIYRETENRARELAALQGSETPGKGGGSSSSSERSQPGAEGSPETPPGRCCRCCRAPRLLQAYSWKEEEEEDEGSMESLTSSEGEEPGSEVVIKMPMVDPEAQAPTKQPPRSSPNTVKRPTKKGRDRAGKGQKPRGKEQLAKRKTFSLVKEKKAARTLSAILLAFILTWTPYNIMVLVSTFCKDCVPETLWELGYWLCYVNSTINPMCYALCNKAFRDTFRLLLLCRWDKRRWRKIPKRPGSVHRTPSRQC
Outline: as §1

M2 muscarinic receptor = molecular target: T4, M2 muscarinic receptor (Homo sapiens, UniProt P08172); test: Functional mobilization of intracellular calcium (FLIPR) in CHO cells expressing M2; settings: for EC50: CHO cells expressing M2, FLIPR calcium; for Emax: CHO, 100% = maximum response obtained with the Carbachol control, read-out: M2 Efficacy
T4 construct: expressed in transfected cells; host or cells: CHO (M2-CHO)
T4 sequence (P08172 1-466): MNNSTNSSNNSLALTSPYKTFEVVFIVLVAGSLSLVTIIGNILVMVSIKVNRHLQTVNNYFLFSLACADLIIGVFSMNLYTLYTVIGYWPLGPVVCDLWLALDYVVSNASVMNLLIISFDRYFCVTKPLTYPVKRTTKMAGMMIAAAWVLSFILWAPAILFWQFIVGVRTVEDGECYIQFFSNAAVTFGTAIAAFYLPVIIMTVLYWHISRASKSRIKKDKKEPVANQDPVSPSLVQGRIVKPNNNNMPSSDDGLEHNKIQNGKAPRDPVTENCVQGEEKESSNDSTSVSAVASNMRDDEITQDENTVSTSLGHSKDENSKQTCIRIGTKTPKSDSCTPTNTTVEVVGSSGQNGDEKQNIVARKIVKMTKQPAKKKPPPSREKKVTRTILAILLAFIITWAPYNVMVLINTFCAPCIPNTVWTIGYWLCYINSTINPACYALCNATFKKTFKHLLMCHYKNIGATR
Outline: as §1

T2 sequence (P20309 whole entry): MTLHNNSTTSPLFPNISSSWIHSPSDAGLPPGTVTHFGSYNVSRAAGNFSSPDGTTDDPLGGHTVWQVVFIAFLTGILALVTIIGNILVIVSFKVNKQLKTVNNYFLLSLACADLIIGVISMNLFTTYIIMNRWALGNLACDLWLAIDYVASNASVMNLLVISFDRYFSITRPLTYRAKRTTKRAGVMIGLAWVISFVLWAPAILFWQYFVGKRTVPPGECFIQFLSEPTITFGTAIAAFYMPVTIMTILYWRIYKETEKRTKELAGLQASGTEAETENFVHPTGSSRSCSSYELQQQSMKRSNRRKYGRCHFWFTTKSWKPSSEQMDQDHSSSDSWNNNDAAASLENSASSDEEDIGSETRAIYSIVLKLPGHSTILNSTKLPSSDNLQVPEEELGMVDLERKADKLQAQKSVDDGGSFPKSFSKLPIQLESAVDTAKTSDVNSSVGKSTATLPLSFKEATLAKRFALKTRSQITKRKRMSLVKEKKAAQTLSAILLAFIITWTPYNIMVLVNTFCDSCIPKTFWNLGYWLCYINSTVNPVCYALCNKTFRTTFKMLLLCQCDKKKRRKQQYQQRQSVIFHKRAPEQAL

Compound	EC50 (M4 muscarinic receptor) [µM]	Emax (M4 muscarinic receptor) [%]	EC50 (M3 muscarinic receptor) [µM]	Emax (M3 muscarinic receptor) [%]	EC50 (M1 muscarinic receptor) [µM]	Emax (M1 muscarinic receptor) [%]	EC50 (M2 muscarinic receptor) [µM]	Emax (M2 muscarinic receptor) [%]
CC(C)(C)CCN1CCC2(CC[C@@H](NC(=O)CN3CCCCCC3=O)c3ccccc32)CC1 [compound 169]	< 2	25 to 100	> 5	< 25	< 2	25 to 100	< 2	< 25
CCN(C(=O)C1CCOCC1)[C@H]1CCC2(CCN(CCC(C)(C)C)CC2)c2ccccc21 [compound 170]	< 2	25 to 100	> 5	< 25	> 5	< 25	> 5	< 25
CC(=O)N(C)CCC(=O)N[C@H]1CCC2(CCN(CCC(C)(C)C)CC2)c2ccccc21 [compound 171]	< 2	25 to 100	> 5	< 25	< 2	25 to 100	< 2	25 to 100
C=CCCCN1CCC2(CC[C@H](NC(C)=O)c3ccccc32)CC1 [compound 172]	< 2	25 to 100	> 5	< 25	< 2	25 to 100	2 to 5	25 to 100
CC(C)(C)CCN1CCC2(CCC(=O)c3ccccc32)CC1 [compound 173]	< 2	25 to 100	> 5	< 25	< 2	25 to 100	< 2	25 to 100
COC(=O)N(C)[C@H]1CCC2(CCN(CCC(C)(C)C)CC2)c2ccccc21 [compound 174]	< 2	25 to 100	> 5	< 25	2 to 5	25 to 100	> 5	< 25
CN(C)C(=O)N[C@H]1CCC2(CCN(CCC(C)(C)C)CC2)c2ccccc21 [compound 175]	< 2	25 to 100	> 5	< 25	> 5	< 25	> 5	< 25
CN(C(=O)C1CC1)[C@H]1CCC2(CCN(CCC(C)(C)C)CC2)c2ccccc21 [compound 176]	< 2	25 to 100	> 5	< 25	2 to 5	< 25	> 5	< 25
CC(=O)N[C@H]1CCC2(CCN(CCC(C)(C)C)CC2)c2cc(F)ccc21 [compound 177]	< 2	25 to 100	> 5	< 25	< 2	25 to 100	< 2	25 to 100
CN(C(=O)C1CCCC1)[C@H]1CCC2(CCN(CCC(C)(C)C)CC2)c2ccccc21 [compound 178]	< 2	25 to 100	> 5	< 25	> 5	< 25	> 5	< 25
